Residues, ends and D or L forms follow the SMILES beside them. No end group written: not given here.
What was measured:
Balb/c mice [1] = assay: Sighting study (tolerance in mice); format: in vivo, mouse; conditions: for tolerance in sighting study: i.p., 30 mg/kg for Ctn[15-34] and Ctn[15-34] re, 3 mg/kg for Ctn re as initial doses; for time to death of an animal: sighting study, one animal
Protocol: To determine the maximum lethal dose and appropriate doses for the main study, a sighting study (Figure 2A) was first conducted. Peptides (Ctn[15-34], Ctn[15-34] re and Ctn re) were administered intraperitoneally (i.p.) at initial doses of 30 mg/kg for Ctn[15-34] and Ctn[15-34] re and 3 mg/kg for Ctn re. If no toxicity signs were observed, the dose was increased. If toxicity signs or death occurred, a lower dose was administered to another animal until an adequate dose was found. After the sighting study was completed, two main studies were performed.
(§1) Nine clinical parameters were assessed by a scoring system (see Table S1). For each parameter a score from 0 to 3 in increasing severity was used. In the sighting (tolerance) study, the clinical score was measured at 10 min, 30 min, 1 h, 2 h, 4 h, 7 h, 24 h, and 48 h after peptide administration. In assays 1 and 2 of the tolerance study, scoring was recorded twice a week for 2 weeks. In the efficacy study, the clinical score was recorded every 2–3 h on day 0 and twice a day on days 1 and 2. An animal was euthanized if it scored 3 on any parameter, or if a combined score of 7 or above was reached.

Balb/c mice [2] = assay: Tolerance assay 1; format: in vivo, mouse; conditions: single i.p. dose, 30 mg/kg Ctn[15-34], 3 mg/kg Ctn re, five female mice per group, 14 days
Protocol: Assay 1: […] randomly distributed groups of five female mice each were used for Ctn[15-34] (30 mg/kg) and Ctn re (3 mg/kg) and negative control (HBS). Ctn[15-34] re was not included due to spontaneous mortality in the sighting study, even at low concentrations. The peptide was administered i.p., and mice were monitored twice on day 0, once a day until day 4, and then three times a week. The study lasted for 14 days, after which the animals were euthanized, and a systematic necropsy was performed.
(§2) Body weight (BW, g) gain (%) was determined at different stages. In the tolerance assays, BW gain was recorded before inoculation and twice a week for 2 weeks. In the efficacy studies, BW gain was likewise measured before inoculation and then twice a day.
as §1

[3] = cited from earlier work; for t1/2: human serum mixed 1:1 with peptide 1 mM in water, 37 °C with stirring, aliquots 0-1440 min, TCA precipitation, HPLC
Excerpt: (§3) Table 1 Sequence and properties of peptides in this study. | column: t1/2 (min) || In this work, we focus on crotalicidin (Ctn), a 34-residue AMP from the venom of Crotalus durissus terrificus, a South American pit viper. […] It is, however, slightly toxic to eukaryotic cells, including cancer cells, which makes it a good anticancer peptide (ACP) candidate. Virtual Ctn dissection with elastase yields two fragments, Ctn[1-14] and Ctn[15-34]. While the former (KRFKKFFKKVKKSV) retains the α-helical conformation of Ctn, it loses both the anticance ...

Balb/c mice [4] = assay: Tolerance assay 2; format: in vivo, mouse
Protocol: Assay 2: Two randomly distributed groups of six female mice each were given two different concentrations of Ctn[15-34] (30 and 20 mg/kg). Each animal was treated with each dose three times a day for three days.
as §2, §1

A. baumannii [5] = assay: Histopathology: hematoxylin and eosin stain and tissue Gram stain; format: in vivo, mouse; conditions: infected and treated mice
Protocol: Following termination of the animals, the following organs were harvested and preserved: right lung, digestive system, pancreas, kidneys, liver, spleen, and brain. These organs were fixed in paraformaldehyde at 4 °C for 24 h.
The tissue processing proceeded through a stepwise procedure. Firstly, the tissues underwent a rinse with formalin for 1.5 h, followed by cleaning with distilled water for 5 min. Subsequently, they were dehydrated using a series of graded ethanol solutions: 80% ethanol for 1 h, 96% ethanol for two consecutive immersions lasting 1 h each, and finally, 100% ethanol for 2 consecutive immersions of 1 h each and an additional immersion for 1.5 h. Following dehydration, the tissues were submerged in xylene for two immersions, each lasting 1.5 h, before being placed in hot liquid paraffin for two consecutive immersions of 1 h each and an additional immersion of 2 h. The treated specimens were embedded in tissue cassettes using a TissueTek embedding console and allowed to cool until the paraffin solidified.
From each paraffin block, […] sections were cut using a microtome (Leica) and mounted on slides. These slides underwent rehydration through a series of graded alcohols: 100% ethanol for 5 min, 85% ethanol for 5 min, 70% ethanol for 5 min, and distilled water. […] After drying, the sections were analyzed using a microscope (Leica DMR, Leica Biosystems, IL, United States). […]

[6] = fragments compared with Ctn; cited from earlier work
Excerpt: as §3, with “In” for “Table 1 Sequence and properties of peptides in this study. | column: t1/2 (min) || In”

A. baumannii [7] = assay: Efficacy assay 1 in mouse systemic infection model; format: in vivo
Protocol: (§4) A systemic infection model was established in mice, as described before. Briefly, an aliquot from A. baumannii stock in 15% glycerol at −80 °C was taken to culture in 3 mL of LB overnight at 37 °C and 250 rpm. After an OD600 reading to adjust bacterial concentration, the culture was diluted with an identical volume of 10% porcine mucin (an enhancer of bacterial infectivity) to a final 1 × 10^8 CFU/mL concentration. A 10 mL/kg inoculation volume was used for each animal.
Assay 1: A total of 24 mice (12 male, 12 female) randomly distributed into four groups were infected i.p. as described above, then each group was treated with Ctn[15-34] (30 mg/kg), Ctn re (3 mg/kg), colistin (10 mg/kg, positive control) or vehicle (HBS, negative control). Treatment (performed blindly) was applied 2 h after infection in a single i.p. dose. […]
as §1, with “For each parameter a score from 0 to 3 in increasing severity was used.” left out

A. baumannii [8] = assay: Efficacy assay 2 in mouse systemic infection model; format: in vivo
Protocol: as §4
Assay 2: In total, 24 mice (12 male, 12 female) randomly distributed into six groups were infected i.p. as described above, then treated in duplicate groups with Ctn[15-34] (20 mg/kg), colistin (5 mg/kg, positive control) or vehicle (HBS, negative control). Treatment (performed blindly) was applied i.p. 2 h after infection and then every 4 h during day 0, and thrice daily for the next 2 days. All animals were checked for clinical signs twice a day for three days, as described in Table S1. On day 2, animals were euthanized with a 200 mg/kg i.p. dose of pentobarbital.
as §1

A. baumannii [9] = assay: Colony-forming units (CFU) in mouse tissues; format: in vivo
Protocol: CFUs in the spleen and lungs of animals in the efficacy studies were counted after euthanasia. One lung and half of the spleen were extracted from each animal. Animals found dead overnight were excluded. The organs were weighed and homogenized in 1 mL of HBS. Subsequently, six serial 10-fold dilutions were prepared, each dilution seeded on a Petri dish with LB-agar and colonies counted after 16 h incubation at 37 °C. Final CFU counts are expressed relative to organ weight (CFU/g).

A. baumannii [10] = conditions: MHB, inoculum 5 × 10^5 CFU/mL, 20–22 h at 37 °C, 0.04% BSA and 0.002% acetic acid, duplicate; cited from earlier work
Excerpt: Table 1 Sequence and properties of peptides in this study. | column: MIC (μM) A. baumannii

[11] = tested on: 1BR3G human fibroblast cells; conditions: cytotoxicity, RPMI 2% FBS, Cell Titer Blue, triplicate; cited from earlier work
Excerpt: Table 1 Sequence and properties of peptides in this study. | column: IC50 (μM)

CC[C@@H](C)[C@@H](NC(=O)CNC(=O)[C@H](NC(=O)[C@H](NC(=O)[C@H](NC(=O)[C@H]1CCCN1C(=O)[C@H](N)Cc1ccccc1)[C@H](C)CC)[C@H](C)O)C(C)C)C(=O)N[C@@H](C(=O)N[C@H](CCSC)C(=O)N1CCC[C@@H]1C(=O)N[C@H](CCCCN)C(=O)N[C@H](CCCCN)C(=O)N[C@H](Cc1ccccc1)C(=O)N[C@@H](C(=O)N[C@H](CCCCN)C(=O)N[C@H](CCCCN)C(=O)N[C@H](CC(C)C)C(=O)N[C@H](CCCNC(=N)N)C(=O)N[C@H](CCCCN)C(=O)N[C@H](CCCCN)C(=O)N[C@@H](C(=O)N[C@H](CO)C(=O)N[C@H](CCCCN)C(=O)N[C@H](CCCCN)C(=O)N[C@@H](C(=O)N[C@H](CCCCN)C(=O)N[C@H](CCCCN)C(=O)N[C@H](Cc1ccccc1)C(=O)N[C@H](Cc1ccccc1)C(=O)N[C@H](CCCCN)C(=O)N[C@H](CCCCN)C(=O)N[C@H](Cc1ccccc1)C(=O)N[C@H](CCCNC(=N)N)C(=O)N[C@H](CCCCN)C(N)=O)C(C)C)C(C)C)[C@H](C)CC)C(C)C [Ctn re] (HELM PEPTIDE1{[dF].[dP].[dI].[dT].[dV].G.[dI].[dV].[dM].[dP].[dK].[dK].[dF].[dI].[dK].[dK].[dL].[dR].[dK].[dK].[dV].[dS].[dK].[dK].[dV].[dK].[dK].[dF].[dF].[dK].[dK].[dF].[dR].[dK].[am]}$$$$V2.0)
tolerance in sighting study (Balb/c mice [1]): viable at the predicted dosages
clinical condition in tolerance assay 1 (Balb/c mice [2]): most animals showed improved clinical conditions in the following days
t1/2 [3]: 3.52 h

CC[C@@H](C)[C@@H](NC(=O)CNC(=O)[C@H](NC(=O)[C@H](NC(=O)[C@H](NC(=O)[C@H]1CCCN1C(=O)[C@H](N)Cc1ccccc1)[C@H](C)CC)[C@H](C)O)C(C)C)C(=O)N[C@@H](C(=O)N[C@H](CCSC)C(=O)N1CCC[C@@H]1C(=O)N[C@H](CCCCN)C(=O)N[C@H](CCCCN)C(=O)N[C@H](Cc1ccccc1)C(=O)N[C@@H](C(=O)N[C@H](CCCCN)C(=O)N[C@H](CCCCN)C(=O)N[C@H](CC(C)C)C(=O)N[C@H](CCCNC(=N)N)C(=O)N[C@H](CCCCN)C(=O)N[C@H](CCCCN)C(N)=O)[C@H](C)CC)C(C)C [Ctn[15-34] re] (HELM PEPTIDE1{[dF].[dP].[dI].[dT].[dV].G.[dI].[dV].[dM].[dP].[dK].[dK].[dF].[dI].[dK].[dK].[dL].[dR].[dK].[dK].[am]}$$$$V2.0)
time to death of an animal (Balb/c mice [1]; 5 mg/kg i.p.): 33 min
time to death of an animal (Balb/c mice [1]; 15 mg/kg i.p.): ≤ 6 min
time to death of an animal (Balb/c mice [1]; 30 mg/kg i.p.): ≤ 3 min
tolerance in sighting study (Balb/c mice [1]): toxic
t1/2 [3]: 15.4 h

KKRLKKIFKKPMVIGVTIPF-NH2 [Ctn[15-34]]
tolerance in sighting study (Balb/c mice [1]): viable at the predicted dosages
clinical condition in tolerance assay 1 (Balb/c mice [2]): most animals showed improved clinical conditions in the following days
clinical signs in tolerance assay 2 (Balb/c mice [4]; 20 mg/kg i.p. thrice daily for 3 days, compared with 30 mg/kg): reversible and consistently lower than for the 30 mg/kg group
BW loss during the first 24 h (Balb/c mice [4]; 30 and 20 mg/kg i.p. thrice daily for three days, both dosage groups, six female mice each): 6–9%
hematoxylin and eosin staining of spleen, lung, liver and kidney (A. baumannii [5]): apoptosis was noted in the spleen lymphocytes of one animal
t1/2 [3]: 12.8 h

KRFKKFFKKVKKSV [Ctn[1-14], fragment of crotalicidin, residues 1-14]
anticancer and antimicrobial properties [6]: loses both the anticancer and antimicrobial properties

LL-37: AMP named for comparison of half-life [reference compound]
half-life ([3]; typical AMP named for comparison with Ctn[15-34], no reference given): 1 h

colistin
clinical signs of treated infected animals (A. baumannii [7]; efficacy assay 1, colistin 10 mg/kg single i.p. dose): weight loss on the first day with subsequent recovery
survival rate (A. baumannii [7]; efficacy assay 1, single i.p. dose 2 h after infection, colistin 10 mg/kg, 3 days): 100%
clinical signs of treated infected animals (A. baumannii [8]; efficacy study 2, thrice daily dose of colistin, compared to the previous study): Increased toxicity
female animals surviving at the endpoint (A. baumannii [8]; efficacy study 2, thrice daily i.p. dosing, female mice): 75%
male animals surviving at the endpoint (A. baumannii [8]; efficacy study 2, thrice daily i.p. dosing, male mice): 50%
CFU/g in left lung and spleen (A. baumannii [9]; after both efficacy studies, positive control group): 10^1–10^2 CFU/g
bacterial presence in the spleen or lungs (A. baumannii [9]; efficacy study 2, animals not surviving the thrice daily colistin dosage): nearly negligible
Gram stain, bacterial load in spleen, lung, liver and kidney (A. baumannii [5]): no evidence of bacterial survival

crotalicidin [Ctn]
MIC (μM) A. baumannii (A. baumannii [10]): 0.78 µM
IC50 [11]: 14.3 µM
t1/2 [3]: 1.18 h
